According to US9527867B2, “Antibacterial biaromatic derivatives” (Actelion Pharmaceuticals Ltd., priority 2013, dated 2016):
≈ marks a conversion by molar mass, not a printed value.

Tests used:
Assay in all cases: Bacterial growth minimal inhibitory concentration (broth microdilution, CLSI M7-A7)
Type in all cases: cell-based
[1] = tested on: Moraxella catarrhalis A894; conditions: Moraxella catarrhalis, A894, cation-adjusted Mueller-Hinton Broth, quinolone-sensitive strain
Procedure, shortened: (§1)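 Cation-adjusted MH broth, microdilution, CLSI M7-A7; MIC in mg/L. Strains: S. aureus A798 and A. baumannii T6474 multiresistant (quinolone-R); S. aureus ATCC29213 MSSA, quinolone-S; M. catarrhalis A894 quinolone-S.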

[2] = tested on: Enterococcus faecium A949; conditions: Enterococcus faecium, A949, cation-adjusted Mueller-Hinton Broth, multiply-resistant strain (in particular quinolone-resistant), read-out: MIC for E. faecium A949
Procedure, shortened: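 Broth microdilution after CLSI M7-A7 in cation-adjusted Mueller-Hinton medium gave MIC values in mg/L.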

[3] = tested on: Staphylococcus aureus ATCC29213; conditions: Staphylococcus aureus, ATCC29213, cation-adjusted Mueller-Hinton Broth, methicillin-sensitive and quinolone-sensitive strain, read-out: MIC for S. aureus ATCC29213
Procedure, shortened: as §1

[4] = tested on: Acinetobacter baumannii T6474; conditions: Acinetobacter baumannii, T6474, cation-adjusted Mueller-Hinton Broth, multiply-resistant strain (in particular quinolone-resistant)
Procedure, shortened: as §1

[5] = tested on: Staphylococcus aureus A798; conditions: Staphylococcus aureus, A798, cation-adjusted Mueller-Hinton Broth, multiply-resistant strain (in particular quinolone-resistant), read-out: MIC for S. aureus A798
Procedure, shortened: as §1

| MIC [1] [µg/mL] | MIC [2] [µg/mL] | MIC [3] [µg/mL] | MIC [4] [µg/mL] | MIC [5] [µg/mL] | Structure (SMILES) |
| --- | --- | --- | --- | --- | --- |
| ≤ 0.016 | 0.125 (≈ 0.249 µM) | ≤ 0.016 | 0.063 (≈ 0.126 µM) | ≤ 0.016 | N#Cc1ccc(O)c(-c2cc(CNCC[C@@H]3CN(c4ccc5c(c4)NC(=O)CS5)C(=O)O3)ccn2)c1 [Example 38, 4-hydroxy-3-[4-({2-[(R)-2-oxo-3-(3-oxo-3,4-dihydro-2H-benzo[1,4]thiazin-6-yl)-oxazolidin-5-yl]-ethylamino}-methyl)-pyridin-2-yl]-benzonitrile] |
| ≤ 0.063 | 4 (≈ 7.96 µM) | 0.5 (≈ 0.995 µM) | 2 (≈ 3.98 µM) | 0.25 (≈ 0.497 µM) | COC(=O)c1cccc(-c2cccc(CNCC[C@H]3CN(c4ccc5c(n4)NC(=O)CO5)C(=O)O3)c2)c1 [Example 77, 3′-({2-[(S)-2-oxo-3-(3-oxo-3,4-dihydro-2H-pyrido[3,2-b][1,4]oxazin-6-yl)-oxazolidin-5-yl]-ethylamino}-methyl)-biphenyl-3-carboxylic acid methyl ester] |
| 0.25 | 8 | 2 | 2 | 1 | O=C1COc2ccc(N3C[C@H](CCNCc4cccc(-c5cccc(N6CCC(O)C6)n5)c4)OC3=O)nc2N1 (mixture of isomers) [Example 57, 6-[(S)-5-(2-{3-[6-((RS)-3-hydroxy-pyrrolidin-1-yl)-pyridin-2-yl]-benzylamino}-ethyl)-2-oxo-oxazolidin-3-yl]-4H-pyrido[3,2-b][1,4]oxazin-3-one] |
| ≤ 0.063 | 16 (≈ 34.1 µM) | 1 (≈ 2.13 µM) | 2 (≈ 4.26 µM) | 2 (≈ 4.26 µM) | N#Cc1ccc(-c2cccc(CNCC[C@H]3CN(c4ccc5c(n4)NC(=O)CO5)C(=O)O3)c2)cc1 [Example 66, 3′-({2-[(S)-2-oxo-3-(3-oxo-3,4-dihydro-2H-pyrido[3,2-b][1,4]oxazin-6-yl)-oxazolidin-5-yl]-ethylamino}-methyl)-biphenyl-4-carbonitrile] |
| 0.063 (≈ 0.133 µM) | 8 (≈ 16.9 µM) | 4 (≈ 8.45 µM) | 2 (≈ 4.22 µM) | 8 (≈ 16.9 µM) | COc1cccc(-c2cccc(CNCCc3nn(-c4ccc5c(n4)NC(=O)CO5)c(=O)o3)c2)c1 [Example 107, 6-(5-{2-[(3′-methoxy-biphenyl-3-ylmethyl)-amino]-ethyl}-2-oxo-[1,3,4]oxadiazol-3-yl)-4H-pyrido[3,2-b][1,4]oxazin-3-one] |
| ≤ 0.016 | 2 (≈ 4.08 µM) | 0.063 (≈ 0.128 µM) | 0.5 (≈ 1.02 µM) | 0.031 (≈ 0.0632 µM) | COc1cccc(-c2cccc(CNCC[C@H]3CN(c4ccc5c(c4)NC(=O)CO5)C(=O)O3)c2O)n1 [Example 90, 6-((S)-5-{2-[2-hydroxy-3-(6-methoxy-pyridin-2-yl)-benzylamino]-ethyl}-2-oxo-oxazolidin-3-yl)-4H-benzo[1,4]oxazin-3-one] |
| 0.125 (≈ 0.262 µM) | > 8 | 4 (≈ 8.38 µM) | 2 (≈ 4.19 µM) | 4 (≈ 8.38 µM) | COc1cnnc(-c2cncc(CNCC[C@H]3CN(c4ccc5c(n4)NC(=O)CO5)C(=O)O3)c2)c1 [Example 110, (S)-6-(5-(2-(((5-(5-methoxypyridazin-3-yl)pyridin-3-yl)methyl)amino)ethyl)-2-oxooxazolidin-3-yl)-2H-pyrido[3,2-b][1,4]oxazin-3(4H)-one] |
| ≤ 0.016 | 1 (≈ 1.92 µM) | 0.063 (≈ 0.121 µM) | 0.5 (≈ 0.959 µM) | 0.031 (≈ 0.0594 µM) | COc1cc(OC)nc(-c2cccc(CNCC[C@@H]3CN(c4ccc5c(c4)NC(=O)CS5)C(=O)O3)c2)n1 [Example 27, 6-((R)-5-{2-[3-(4,6-dimethoxy-pyrimidin-2-yl)-benzylamino]-ethyl}-2-oxo-oxazolidin-3-yl)-4H-benzo[1,4]thiazin-3-one] |
| ≤ 0.016 | 1 (≈ 1.94 µM) | 0.063 (≈ 0.122 µM) | 0.25 (≈ 0.486 µM) | 0.063 (≈ 0.122 µM) | COc1ccc(C#N)c(-c2cccc(CNCC[C@@H]3CN(c4ccc5c(c4)NC(=O)CS5)C(=O)O3)c2)c1 [Example 8, 5-methoxy-3′-({2-[(R)-2-oxo-3-(3-oxo-3,4-dihydro-2H-benzo[1,4]thiazin-6-yl)-oxazolidin-5-yl]-ethylamino}-methyl)-biphenyl-2-carbonitrile] |
| 0.031 (≈ 0.0633 µM) | 2 (≈ 4.08 µM) | 0.25 (≈ 0.511 µM) | 0.5 (≈ 1.02 µM) | 0.25 (≈ 0.511 µM) | COc1cccc(-c2cccc(CNCC[C@@H]3CN(c4ccc5c(c4)NC(=O)CS5)C(=O)O3)c2)c1 [Example 1, 6-((R)-5-{2-[(3′-methoxy-biphenyl-3-ylmethyl)-amino]-ethyl}-2-oxo-oxazolidin-3-yl)-4H-benzo[1,4]thiazin-3-one] |
| ≤ 0.063 | 16 (≈ 32 µM) | 1 (≈ 2 µM) | 2 (≈ 4 µM) | 1 (≈ 2 µM) | N#CCOc1cccc(-c2cccc(CNCC[C@H]3CN(c4ccc5c(n4)NC(=O)CO5)C(=O)O3)c2)c1 [Example 65, [3′-({2-[(S)-2-oxo-3-(3-oxo-3,4-dihydro-2H-pyrido[3,2-b][1,4]oxazin-6-yl)-oxazolidin-5-yl]-ethylamino}-methyl)-biphenyl-3-yloxy]-acetonitrile] |
| ≤ 0.016 | 1 (≈ 2.06 µM) | 0.063 (≈ 0.13 µM) | 0.125 (≈ 0.257 µM) | 0.125 (≈ 0.257 µM) | N#Cc1cncc(-c2cccc(CNCC[C@@H]3CN(c4ccc5c(c4)NC(=O)CS5)C(=O)O3)c2)c1 [Example 17, 5-[3-({2-[(R)-2-oxo-3-(3-oxo-3,4-dihydro-2H-benzo[1,4]thiazin-6-yl)-oxazolidin-5-yl]-ethylamino}-methyl)-phenyl]-nicotinonitrile] |
| 0.031 (≈ 0.0638 µM) | 4 (≈ 8.24 µM) | 0.25 (≈ 0.515 µM) | 0.25 (≈ 0.515 µM) | 0.25 (≈ 0.515 µM) | N#Cc1cccc(-c2cccc(CNCC[C@@H]3CN(c4ccc5c(c4)NC(=O)CS5)C(=O)O3)c2)n1 [Example 18, 6-[3-({2-[(R)-2-oxo-3-(3-oxo-3,4-dihydro-2H-benzo[1,4]thiazin-6-yl)-oxazolidin-5-yl]-ethylamino}-methyl)-phenyl]-pyridine-2-carbonitrile] |
| ≤ 0.016 | 0.5 (≈ 1.03 µM) | 0.063 (≈ 0.13 µM) | 0.125 (≈ 0.258 µM) | 0.063 (≈ 0.13 µM) | N#Cc1cccc(-c2cccc(CNCC[C@H]3CN(c4ccc5c(c4)NC(=O)CS5)C(=O)O3)c2)c1 [Example 3, 3′-({2-[(S)-2-oxo-3-(3-oxo-3,4-dihydro-2H-benzo[1,4]thiazin-6-yl)-oxazolidin-5-yl]-ethylamino}-methyl)-biphenyl-3-carbonitrile] |
| ≤ 0.063 | 8 (≈ 16 µM) | 0.5 (≈ 1 µM) | 2 (≈ 4 µM) | 1 (≈ 2 µM) | COc1ccc(C#N)cc1-c1cccc(CNCC[C@H]2CN(c3ccc4c(n3)NC(=O)CO4)C(=O)O2)c1 [Example 76, 6-methoxy-3′-({2-[(S)-2-oxo-3-(3-oxo-3,4-dihydro-2H-pyrido[3,2-b][1,4]oxazin-6-yl)-oxazolidin-5-yl]-ethylamino}-methyl)-biphenyl-3-carbonitrile] |
| 0.031 (≈ 0.0629 µM) | 4 (≈ 8.12 µM) | 0.25 (≈ 0.508 µM) | 0.25 (≈ 0.508 µM) | 0.125 (≈ 0.254 µM) | COc1cnnc(-c2cccc(CNCC[C@@H]3CN(c4ccc5c(n4)NC(=O)CS5)C(=O)O3)c2)c1 [Example 98, 6-((R)-5-{2-[3-(5-methoxy-pyridazin-3-yl)-benzylamino]-ethyl}-2-oxo-oxazolidin-3-yl)-4H-pyrido[3,2-b][1,4]thiazin-3-one] |
| ≤ 0.016 | 2 (≈ 4.26 µM) | 0.125 (≈ 0.266 µM) | 0.125 (≈ 0.266 µM) | 0.25 (≈ 0.532 µM) | N#Cc1cccc(-c2cccc(CNCC[C@@H]3CN(c4ccc5c(n4)NC(=O)CO5)C(=O)O3)c2)c1 [Example 33, 3′-({2-[(R)-2-oxo-3-(3-oxo-3,4-dihydro-2H-pyrido[3,2-b][1,4]oxazin-6-yl)-oxazolidin-5-yl]-ethylamino}-methyl)-biphenyl-3-carbonitrile] |
| ≤ 0.016 | 4 (≈ 8.54 µM) | 0.5 (≈ 1.07 µM) | 1 (≈ 2.13 µM) | 2 (≈ 4.27 µM) | N#Cc1cccc(-c2cccc(CNCCc3nn(-c4ccc5c(n4)NC(=O)CO5)c(=O)o3)c2)c1 [Example 56, 3′-({2-[5-oxo-4-(3-oxo-3,4-dihydro-2H-pyrido[3,2-b][1,4]oxazin-6-yl)-4,5-dihydro-[1,3,4]oxadiazol-2-yl]-ethylamino}-methyl)-biphenyl-3-carbonitrile] |
| 0.25 (≈ 0.498 µM) | > 8 | 4 (≈ 7.97 µM) | 8 (≈ 15.9 µM) | 4 (≈ 7.97 µM) | N#Cc1cc(O)nc(-c2cccc(CNCC[C@@H]3CN(c4ccc5c(c4)NC(=O)CS5)C(=O)O3)c2)c1 [Example 47, 2-hydroxy-6-[3-({2-[(R)-2-oxo-3-(3-oxo-3,4-dihydro-2H-benzo[1,4]thiazin-6-yl)-oxazolidin-5-yl]-ethylamino}-methyl)-phenyl]-isonicotinonitrile] |
| ≤ 0.016 | 1 (≈ 2.03 µM) | 0.031 (≈ 0.0631 µM) | 0.25 (≈ 0.509 µM) | 0.031 (≈ 0.0631 µM) | COc1cncc(-c2cccc(CNCC[C@@H]3CN(c4ccc5c(c4)NC(=O)CS5)C(=O)O3)c2)n1 [Example 25, 6-((R)-5-{2-[3-(6-methoxy-pyrazin-2-yl)-benzylamino]-ethyl}-2-oxo-oxazolidin-3-yl)-4H-benzo[1,4]thiazin-3-one] |
| 0.031 (≈ 0.0631 µM) | 4 (≈ 8.14 µM) | 0.125 (≈ 0.254 µM) | 0.25 (≈ 0.509 µM) | 0.125 (≈ 0.254 µM) | COc1cnnc(-c2cccc(CNCC[C@@H]3CN(c4ccc5c(c4)NC(=O)CS5)C(=O)O3)c2)c1 [Example 30, 6-((R)-5-{2-[3-(5-methoxy-pyridazin-3-yl)-benzylamino]-ethyl}-2-oxo-oxazolidin-3-yl)-4H-benzo[1,4]thiazin-3-one] |
